Values belong to the compound of their own block, whether it stands above or below them.
Assays:
Assay type in all cases: physicochemical
[1] = DSC glass transition of rapid quench 50% ACM layers; conditions: 50% ACM loading, DSC 10° C./min
Experimental: All analyses were carried out in triplicate.
Most thin layer drug products are initially amorphous, but tend to crystallize slowly over time. Time and material consuming storage experiments are usually required to study the stability of amorphous drug candidate. It is necessary to predict the amorphous stability of drug candidates early in the formulation process. However, the glass transition temperature of the polymer is masked by the melting peak of the drug and little extra information can be extracted. The DSC heating curve for a sample quench cooled after being melted gave information on the glass transition temperature, the crystallisation exotherm, and the melting endotherm (FIG. 21). Samples were prepared by melting in closed DSC pans from R.T. to 200° C. at a rate of 10° C./min and subsequently cooled to −10° C. at a cooling rate of 10° C./min. The pure ACM phases were well studied by DSC; the amorphous form a glass transition peak at 24.8° C., a crystallization peak between 65° C. to 100° C., a solid state transition at about 130° C. from Form III to Form II, and a melting peak for Form II at about 158° C.

[2] = Crystallization time of ACM in layers with different excipients; conditions: 50% ACM layers
[3] = HPLC purity of aliskiren in Aliskiren/HPMC layers under different drying conditions
Experimental: (§1) Water content was measured using a […] volumetric KF titration from Mettler Toledo. […] […] drug purity was verified by Agilent […] series high performance liquid chromatography (HPLC). All analyses were carried out in triplicate. […] In order to confirm the chemical stability of the drug, HPLC was used. Different experiments were carried out to examine the level of degradation of aliskiren as the drying temperature and time increased. […] The highest allowable drying temperature was set to be 70° C. At 70° C., 60 min was the minimum drying time required to have layers that peel easily and that contain solvent content under regulatory requirements (ethanol<0.5% and water %<0.5%). The layers were stored in a vacuum desiccator overnight to remove excess solvent, and then sealed under vacuum for storage and further characterization.

[4] = Solvent inspection of dried layers after storage in desiccator overnight
Experimental: as §1

[5] = Stability test of […]/HPMC thin layer tablets stored at 40° C., 75% R.H. (HPLC); conditions: Pure ALISKIREN (starting drug substance)
Experimental: Tablet forming was done by Instron and a force of up to 25 kN (9 mm diameter die) was recorded. The as-made thin layer tablets are then coated by Opadry AMB for 60 min, with the final coating taking up 10% of the tablet weight. Every 30 tablets were stored in a plastic vial of about 40 ml in volume together with a small standard drying bag. Vials were sealed using aluminum foil and placed at 40° C. for 75% R.H. for 1 month or 3 months. Samples of Aliskiren/HPMC thin layer tablets were tested by HPLC after peeling off the blue coating materials to avoid cross contamination. […] Water content was measured using a […] volumetric KF titration from Mettler Toledo. […] drug purity was verified by Agilent […] series high performance liquid chromatography (HPLC). All analyses were carried out in triplicate. […] The as-obtained tablets were then coated by Opadry AMB and placed at 40° C. for 75% R.H. for 1-month or 3-months stability tests.

Tg [1]: 24.8 °C | Crystallization time [2]: <6 h
Compound: CC(=O)Nc1ccc(O)cc1 [ACM only, Acetaminophen]

ALISKIREN purity % ([3]; drying 30° C., 180 min): 99.6% | One single impurity >0.2% ([3]; drying 30° C., 180 min): No | ALISKIREN purity % ([3]; drying 50° C., 90 min): 99.5% | One single impurity >0.2% ([3]; drying 50° C., 90 min): No | ALISKIREN purity % ([3]; drying 50° C., 180 min): 99.5% | One single impurity >0.2% ([3]; drying 50° C., 180 min): No | ALISKIREN purity % ([3]; drying 70° C., 30 min): 99.5% | One single impurity >0.2% ([3]; drying 70° C., 30 min): No | ALISKIREN purity % ([3]; drying 70° C., 60 min): 99.3% | One single impurity >0.2% ([3]; drying 70° C., 60 min): No | ALISKIREN purity % ([3]; drying 70° C., 90 min): 99.2% | One single impurity >0.2% ([3]; drying 70° C., 90 min): No | ALISKIREN purity % ([3]; drying 90° C., 30 min): 98.8% | One single impurity >0.2% ([3]; drying 90° C., 30 min): Yes | Solvent inspection (<0.5%) after stored in dessicator overnight ([4]; drying 30° C., 180 min): Yes | Solvent inspection (<0.5%) after stored in dessicator overnight ([4]; drying 50° C., 90 min): Yes | Solvent inspection (<0.5%) after stored in dessicator overnight ([4]; drying 50° C., 180 min): Yes | Solvent inspection (<0.5%) after stored in dessicator overnight ([4]; drying 70° C., 60 min): Yes | Solvent inspection (<0.5%) after stored in dessicator overnight ([4]; drying 70° C., 90 min): Yes | Purity of ALISKIREN [5]: 99.6%
Compound: COCCCOc1cc(C[C@@H](C[C@H](N)[C@@H](O)C[C@H](C(=O)NCC(C)(C)C(N)=O)C(C)C)C(C)C)ccc1OC [Aliskiren]
